Test results taken from ChEMBL document CHEMBL6177994 (J Med Chem, 2025).
Activity calls are given as the source filed them. The calls are words filed in the database; no cut-off is given here.

Assays:
[1] = Antitumor activity against human Panc 04.03 cells harbouring KRAS G12D mutant xenografted in female Balb/c nude mouse model assessed as tumor regression at 1 to 10 mg/kg, iv QW administered weekly and measured after 28 days relative to control; assay type: functional; conditions: dose 1-10 mg/kg, time 28 day
[2] = test system: SW1990; assay: Antiproliferative activity against human SW1990 cells harbouring KRAS G12D mutant assessed as inhibition of cell growth measured after 72 hrs by Cell titer glo method; assay type: functional, cell-based
[3] = Metabolic stability in rat liver microsomes assessed as half life at 1 uM preincubated for 3 mins with NADPH and measured up to 60 mins by LC-MS/MS analysis; assay type: ADME, Microsome; conditions: time < 63 min
[4] = target: Protein cereblon/GTPase KRas (Homo sapiens) (UniProt P01116+Q96SW2); assay: PROTAC activity at CRBN/KRAS in human MKN-1 cells assessed as induction of KRAS degradation 1 nM measured after 24 hrs by immunoblot analysis; assay type: cell-based
[5] = target: GTPase KRas (Homo sapiens, UniProt P01116, G12D); assay: Binding affinity to 6 His-tagged GDP-loaded human KRAS G12D mutant assessed as GDP-GTP exchange preincubated for 30 mins followed by GTP addition for 30 mins by HTRF method
[6] = Toxicity in female Balb/c nude mouse xenografted with human PK-59 cells assessed as change in body weight at 0.1 to 3 mg/kg, iv QW measured after 28 days; assay type: organism-based; conditions: in vivo, 672 h, dose 0.1-3 mg/kg, time 28 day
[7] = test system: Protein cereblon/GTPase KRas (Homo sapiens), P01116+Q96SW2 [G12D]; assay: PROTAC activity at CRBN/KRAS G12D mutant in human ASPC1 cells assessed as induction of KRAS G12D mutant degradation at 1 nM measured up to 36 hrs by immunoblot analysis; assay type: cell-based
[8] = test system: Protein cereblon/GTPase KRas (Homo sapiens), P01116+Q96SW2 [G12D]; assay: PROTAC activity at CRBN/KRAS G12D mutant in human ASPC1 cells assessed as induction of KRAS G12D mutant degradation at 5 nM preincubated with MG132 followed by compound addition and measured after 24 hrs by Western blot analysis; assay type: cell-based
[9] = Antiproliferative activity against human PK-59 cells harbouring KRAS G12D mutant assessed as inhibition of cell growth measured after 72 hrs by Cell titer glo method; assay type: functional, cell-based; conditions: PK-59, 72 h
[10] = Clearance in male Sprague-Dawley rat at 1 mg/kg, iv measured up to 24 hrs by LC-MS/MS analysis; assay type: ADME, organism-based; conditions: in vivo
[11] = Antitumor activity against human PK-59 cells xenografted in female Balb/c nude mouse model assessed as tumor growth inhibition at 0.3 mg/kg, iv QW measured after 28 days relative to control; assay type: functional; conditions: PK-59, 672 h, time 28 day, read-out: TGI
[12] = Drug concentration in male Balb/c nude mouse tumor xenografted with human GP2d cells at 10 mg/kg, iv administered as single dose measured after 7 days by LC-MS/MS analysis; assay type: ADME, organism-based, Neoplasm; conditions: time 7 day, read-out: Ct
[13] = target: Cytochrome P450 1A2 (Homo sapiens, UniProt P05177); assay: Inhibition of CYP1A2 in human liver microsomes using phenacetin as substrate at 10 uM incubated for 15 mins in presence of NADPH by LC/MS analysis; assay type: ADME, Microsome; conditions: 0.25 h
[14] = target: Protein cereblon/GTPase KRas (Homo sapiens, UniProt P01116+Q96SW2, G12D); assay: PROTAC activity at CRBN/KRAS G12D mutant in human ASPC1 cells assessed as induction of KRAS G12D mutant degradation measured after 24 hrs by immunoblot analysis; assay type: cell-based
[15] = test system: A-427; assay: Antitumor activity against human A-427 cells harbouring KRAS G12D mutant xenografted in female Balb/c nude mouse model assessed as tumor regression at 1 to 10 mg/kg, iv QW administered weekly and measured after 28 days relative to control; assay type: functional; conditions: dose 1-10 mg/kg, time 28 day
[16] = Antitumor activity against human PK-59 cells xenografted in female Balb/c nude mouse model assessed as tumor growth inhibition at 1 mg/kg, iv QW measured after 28 days relative to control; assay type: functional; conditions: PK-59, 672 h, time 28 day, read-out: TGI
[17] = Metabolic stability in dog liver microsomes assessed as half life at 1 uM preincubated for 3 mins with NADPH and measured up to 60 mins by LC-MS/MS analysis; assay type: ADME, Canis lupus familiaris, Microsome; conditions: time < 63 min
[18] = test system: Protein cereblon/GTPase KRas (Homo sapiens), P01116+Q96SW2 [G12D]; assay: PROTAC activity at CRBN/KRAS G12D mutant in human ASPC1 cells assessed as induction of KRAS G12D mutant degradation at 50 nM measured after 24 hrs by immunoblot analysis relative to control; assay type: cell-based
[19] = Antitumor activity against human GP2d cells xenografted in female Balb/c nude mouse model assessed as tumor growth inhibition at 10 mg/kg, iv QW administered […] and measured after 28 days relative to control; assay type: functional; conditions: 672 h, time 28 day, read-out: TGI
[20] = Half life in male ICR mouse at 1 mg/kg, iv measured up to 24 hrs by LC-MS/MS analysis; assay type: ADME, organism-based; conditions: in vivo
[21] = Toxicity in female Balb/c nude mouse xenografted with human GP2d cells assessed as change in body weight at 1 to 10 mg/kg, iv Q2W measured after 28 days; assay type: organism-based; conditions: in vivo, 672 h, dose 1-10 mg/kg, time 28 day
[22] = AUC (0 to t) in male cynomolgus monkey at 1 mg/kg, iv measured up to 24 hrs by LC-MS/MS analysis; assay type: ADME, organism-based, Macaca fascicularis; conditions: in vivo
[23] = test system: Protein cereblon/GTPase KRas (Homo sapiens), P01116+Q96SW2 [G12D]; assay: In vivo PROTAC activity at CRBN/KRAS G12D mutant in male Balb/c nude mouse xenografted with human GP2d cells assessed as inhibition of ERK phosphorylation level at 10 mg/kg, iv measured after 7 days; assay type: functional, organism-based; conditions: time 7.0 day
[24] = Elimination half life in male ICR mouse pancreas at 10 mg/kg, iv measured up to 336 hrs by LC-MS/MS analysis; assay type: ADME, organism-based; conditions: read-out: beta t1/2 (converted)
[25] = test system: ASPC1; assay: Effect on GSPT1 level in human ASPC1 cells at 10 nM measured after 8 hrs by Western blot analysis; assay type: functional, cell-based
[26] = test system: HEK293; assay: Antiproliferative activity against HEK293 cells harbouring wild type KRAS assessed as inhibition of cell growth measured after 72 hrs by Cell titer glo method; assay type: toxicity, cell-based; conditions: human, hek293, 72 h
[27] = Inhibition of ERK phosphorylation in human GP2d cells harbouring KRAS G12D mutant measured after 24 hrs; assay type: cell-based
[28] = Metabolic stability in mouse liver microsomes assessed as half life at 1 uM preincubated for 3 mins with NADPH and measured up to 60 mins by LC-MS/MS analysis; assay type: ADME, Microsome; conditions: time < 63 min
[29] = Metabolic stability in human liver microsomes assessed as half life at 1 uM preincubated for 3 mins with NADPH and measured up to 60 mins by LC-MS/MS analysis; assay type: ADME, Microsome; conditions: time < 63 min
[30] = test system: PK-59; assay: PROTAC activity at CRBN/KRAS G12D mutant in human PK-59 cells assessed as induction of KRAS G12D mutant degradation 0.01 to 100 nM measured after 24 hrs by immunoblot analysis; assay type: cell-based; conditions: dose 0.01-100 nM
[31] = test system: Protein cereblon/GTPase KRas (Homo sapiens), P01116+Q96SW2 [G12D]; assay: In vivo PROTAC activity at CRBN/KRAS G12D mutant in male Balb/c nude mouse xenografted with human PK-59 cells assessed as reduction in DUSP4 level in tumor at 10 mg/kg, iv measured up to 168 hrs relative to control; assay type: functional, organism-based; set-up: scale not given: the % may be the effect or the level left

Chain of Protein cereblon/GTPase KRas (Homo sapiens), P01116+Q96SW2 [G12D] (P01116 whole entry G12D): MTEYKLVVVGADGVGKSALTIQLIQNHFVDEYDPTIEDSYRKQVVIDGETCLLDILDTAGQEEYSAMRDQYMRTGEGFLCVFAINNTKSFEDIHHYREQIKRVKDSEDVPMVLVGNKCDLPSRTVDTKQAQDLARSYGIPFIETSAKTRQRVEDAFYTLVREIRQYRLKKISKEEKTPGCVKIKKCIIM
Chain of Protein cereblon/GTPase KRas (Homo sapiens), P01116+Q96SW2 [G12D] (Q96SW2 whole entry partner): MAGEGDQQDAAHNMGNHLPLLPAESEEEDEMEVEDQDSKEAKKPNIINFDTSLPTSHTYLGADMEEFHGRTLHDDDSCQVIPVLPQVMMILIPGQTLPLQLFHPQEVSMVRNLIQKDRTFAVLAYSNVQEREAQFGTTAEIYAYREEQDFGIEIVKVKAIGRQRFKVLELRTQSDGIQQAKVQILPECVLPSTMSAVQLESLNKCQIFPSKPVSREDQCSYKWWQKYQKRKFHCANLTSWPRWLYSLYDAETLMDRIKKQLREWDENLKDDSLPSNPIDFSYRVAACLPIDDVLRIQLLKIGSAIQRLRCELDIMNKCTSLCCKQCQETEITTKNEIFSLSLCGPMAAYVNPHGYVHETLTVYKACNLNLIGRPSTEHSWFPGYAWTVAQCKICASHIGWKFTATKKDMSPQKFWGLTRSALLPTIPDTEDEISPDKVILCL
Chain of Protein cereblon/GTPase KRas (Homo sapiens) (P01116 whole entry, looked up): as the sequence (P01116 whole entry G12D) above, with D12G counted along it
Chain of Protein cereblon/GTPase KRas (Homo sapiens) (Q96SW2 whole entry, looked up): as the sequence (Q96SW2 whole entry partner) above
Chain of Cytochrome P450 1A2 (P05177 whole entry): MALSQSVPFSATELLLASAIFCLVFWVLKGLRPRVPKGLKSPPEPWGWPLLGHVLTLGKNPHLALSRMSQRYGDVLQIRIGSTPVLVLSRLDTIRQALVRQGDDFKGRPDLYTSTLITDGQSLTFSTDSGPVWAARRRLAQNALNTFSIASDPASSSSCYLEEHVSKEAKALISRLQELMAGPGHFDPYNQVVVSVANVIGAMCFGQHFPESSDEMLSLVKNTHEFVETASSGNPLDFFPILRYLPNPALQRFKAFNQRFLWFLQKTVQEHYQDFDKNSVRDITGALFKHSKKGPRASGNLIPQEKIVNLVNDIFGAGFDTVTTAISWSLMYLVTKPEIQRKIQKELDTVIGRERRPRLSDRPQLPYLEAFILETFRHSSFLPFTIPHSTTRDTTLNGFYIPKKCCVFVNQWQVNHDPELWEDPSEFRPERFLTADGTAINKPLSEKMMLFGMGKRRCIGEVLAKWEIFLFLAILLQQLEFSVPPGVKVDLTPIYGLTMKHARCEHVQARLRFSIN
Chain of Protein cereblon/GTPase KRas (P01116 whole entry G12D, stated change not applied): as the sequence (P01116 whole entry G12D) above
Chain of Protein cereblon/GTPase KRas (Q96SW2 whole entry, stated change not applied): as the sequence (Q96SW2 whole entry partner) above
Chain of GTPase KRas (P01116 whole entry G12D): as the sequence (P01116 whole entry G12D) above

Question: With C#Cc1c(F)ccc2cc(O)cc(-c3ncc4c(N5CC6CCC(C5)N6)nc(OCC5(CN6CCC7(CC6)CC(N6CCC(c8cc9c(cc8F)c(N8CCC(=O)NC8=O)nn9C)CC6)C7)CC5)nc4c3F)c12 as the compound, how does the Activity [1] read?
Answer: >30%

Question: What about the Activity [2] of the same compound?
Answer: Active; Compound Showed Stronger Antiproliferative Activity Compared To Mrtx1133

Question: What about the half-life at 1 µM [3] of the same compound?
Answer: 2.52 h

Question: And the Activity [4]?
Answer: inactive

Question: What about the IC50 [5] of the same compound?
Answer: 6.34 nM

Question: And the Activity [6]?
Answer: Non-toxic

Question: What about the Activity [7] of the same compound?
Answer: Active

Question: And the Activity [8]?
Answer: inactive

Question: What about the IC50 [9] of the same compound?
Answer: 2.8 nM

Question: And the clearance [10]?
Answer: 33 mL/min/kg

Question: What about the inhibition in vivo at 0.3 mg/kg [11] of the same compound?
Answer: 93%

Question: What about the concentration at 168 h [12] of the same compound?
Answer: 840 ng/g

Question: What about the “inhibition (INH)” value [13] of the same compound?
Answer: Not_active

Question: What about the DC50 [14] of the same compound?
Answer: 0.6 nM

Question: What about the Activity [15] of the same compound?
Answer: >30%

Question: And the inhibition in vivo at 1 mg/kg [16]?
Answer: 98%

Question: And the half-life at 1 µM [17]?
Answer: 7.22 h

Question: And the Activity [18]?
Answer: 74%

Question: And the inhibition in vivo at 10 mg/kg [19]?
Answer: 94.7%

Question: What about the half-life [20] of the same compound?
Answer: 8.82 h

Question: And the Activity [21]?
Answer: Non-toxic

Question: And the AUC(0-t) at 24 h [22]?
Answer: 0.836 µM·h

Question: And the Activity [23]?
Answer: Active

Question: And the half-life [24]?
Answer: 330 h

Question: What about the Activity [25] of the same compound?
Answer: inactive

Question: And the Activity [26]?
Answer: Non-toxic

Question: What about the IC50 [27] of the same compound?
Answer: 0.35 nM

Question: And the half-life at 1 µM [28]?
Answer: 7.22 h

Question: What about the half-life at 1 µM [29] of the same compound?
Answer: 2.57 h

Question: And the Activity [30]?
Answer: Active

Question: And the Activity [31]?
Answer: 6.1%
